Reference: US7405240B2, “Substituted cyclopentanes or cyclopentanones as therapeutic agents” (Allergan, Inc., priority 2006, dated 2008)

How the values were obtained:
[1] = biological target: T1, hEP2 (Homo sapiens, UniProt P43116); test: FLIPR calcium signal, hEP2; type: cell-based; parameters: expressed in transfected cells; host or cells: HEK-293(EBNA); conditions: HEK-293(EBNA) cells expressing hEP2/Gqs5
Protocol: (§1) Methods for FLIPR™ Studies
(§2) HEK-293(EBNA) cells, stably expressing one type or subtype of recombinant human prostaglandin receptors (prostaglandin receptors expressed: hDP/Gqs5; hEP1; hEP2/Gqs5; hEP3A/Gqi5; hEP4/Gqs5; hFP; hIP; hTP), were cultured in 100 mm culture dishes in high-glucose DMEM medium containing 10% fetal bovine serum, 2 mM 1-glutamine, 250 μg/ml geneticin (G418) and 200 μg/ml hygromycin B as selection markers, and 100 units/ml penicillin G, 100 μg/ml streptomycin and 0.25 μg/ml amphotericin B.
(§3) Cells were seeded at a density of 5×10^4 cells per well in Biocoat® Poly-D-lysine-coated black-wall, clear-bottom 96-well plates (Becton-Dickinson) and allowed to attach overnight in an incubator at 37° C. Cells were then washed two times with HBSS-HEPES buffer (Hanks Balanced Salt Solution without bicarbonate and phenol red, 20 mM HEPES, pH 7.4) using a Denley Cellwash plate washer (Labsystems). After 45 minutes of dye-loading in the dark, using the calcium-sensitive dye Fluo-4 AM at a final concentration of 2 μM, plates were washed four times with HBSS-HEPES buffer to remove excess dye leaving 100 μl in each well. Plates were re-equilibrated to 37° C. for a few minutes.
(§4) Cells were excited with an Argon laser at 488 nm, and emission was measured through a 510-570 nm bandwidth emission filter (FLIPR™, Molecular Devices, Sunnyvale, Calif.). Drug solution was added in a 50 μl volume to each well to give the desired final concentration. The peak increase in fluorescence intensity was recorded for each well. On each plate, four wells each served as negative (HBSS-HEPES buffer) and positive controls (standard agonists: BW245C (hDP); PGE2 (hEP1; hEP2/Gqs5; hEP3A/Gqi5; hEP4/Gqs5); PGF2α (hFP); carbacyclin (hIP); U-46619 (hTP), depending on receptor). The peak fluorescence change in each drug-containing well was then expressed relative to the controls.
(§5) Compounds were tested in a high-throughput (HTS) or concentration-response (CoRe) format. In the HTS format, forty-four compounds per plate were examined in duplicates at a concentration of 10^−5 M. To generate concentration-response curves, four compounds per plate were tested in duplicates in a concentration range between 10^−5 and 10^−11 M. The duplicate values were averaged. In either, HTS or CoRe format each compound was tested on at least 3 separate plates using cells from different passages to give an n≧3.

[2] = biological target: T1, hEP2; test: cAMP assay, hEP2; type: cell-based
[3] = biological target: T2, hEP4 (Homo sapiens, UniProt P35408); test: FLIPR calcium signal, hEP4; type: cell-based; parameters: expressed in transfected cells; host or cells: HEK-293(EBNA); conditions: HEK-293(EBNA) cells expressing hEP4/Gqs5
Protocol: as §1, §2, §3, §4, §5

[4] = biological target: T2, hEP4; test: Radioligand binding, EP4 receptor; parameters: expressed in transfected cells; host or cells: HEK-293; conditions: [3H]PGE2, HEK-293 cells expressing EP4
Protocol: (§6) HEK-293 cells stably expressing the human or feline FP receptor, or EP1, EP2, or EP4 receptors were washed with TME buffer, scraped from the bottom of the flasks, and homogenized for 30 sec using a Brinkman PT 10/35 polytron. TME buffer was added to achieve a final 40 ml volume in the centrifuge tubes (the composition of TME is 100 mM TRIS base, 20 mM MgCl2, […]; 10N HCl is added to achieve a pH of 7.4).
(§7) The cell homogenate was centrifuged at 19000 r.p.m. for 20 min at 4° C. using a Beckman Ti-60 rotor. The resultant pellet was resuspended in TME buffer to give a final 1 mg/ml protein concentration, as determined by Biorad assay. Radioligand binding competition assays vs. [3H-] 17-phenyl PGF2, (5 nM) were performed in a 100 μl volume for 60 min. Binding reactions were started by adding plasma membrane fraction. The reaction was terminated by the addition of 4 ml ice-cold TRIS-HCl buffer and rapid filtration through glass fiber GF/B filters using a Brandel cell harvester. The filters were washed 3 times with ice-cold buffer and oven dried for one hour.
(§8) [^3H-] PGE2 (specific activity 180 Ci mmol) was used as the radioligand for EP receptors. [^3H] 17-phenyl PGF2, was employed for FP receptor binding studies. Binding studies employing EP1, EP2, EP4 and FP receptors were performed in duplicate in at least three separate experiments. A […] assay volume was used. Incubations were for 60 min at 25° C. and were terminated by the addition of 4 ml of ice-cold 50 mM TRIS-HCl, followed by rapid filtration through Whatman GF/B filters and three additional 4 ml washes in a cell harvester (Brandel). Competition studies were performed using a final concentration of 5 nM [^3H]-PGE2, or 5 nM [^3H] 17-phenyl PGF2, and non-specific binding determined with 10^−5M of unlabeled PGE2, or 17-phenyl PGF2α, according to receptor subtype studied.

[5] = biological target: T1, hEP2; test: Competition binding, [3H]PGE2, human EP2 receptors; parameters: expressed in transfected cells; host or cells: HEK 293; conditions: [3H]PGE2, HEK 293 cells stably expressing human EP2; read-out: hEP2 Ki
Protocol: Competition binding experiments were performed in a medium containing Hank's balanced salt solution, Hepes 20 mM, pH 7.3, membranes (˜60 μg protein) or 2×10^5 cells from HEK 293 cells stably expressing human EP2 receptors, [^3H]PGE2 (10 nM) and various concentrations of test compounds in a total volume of 300 μl. Reaction mixtures were incubated at 23° C. for 60 min, and were filtered over Whatman GF/B filters under vacuum. Filters were washed three times with 5 ml ice-cold buffer containing 50 mM Tris/HCl (pH 7.3). Non-specific binding was estimated in the presence of excess unlabeled PGE2 (10 μM). Binding data fitted to the binding model for a single class of binding sites, using nonlinear regression analysis. IC50 values thus obtained were converted to Ki using the equation of Ki=(IC50/(1+[L]/KD) where [L] represents PGE2 concentration (10 nM) and KD the dissociation constant for [^3H]PGE2 at human EP2 receptors (40 nM).
as §6, §7, §8

T1 sequence (P43116 whole entry): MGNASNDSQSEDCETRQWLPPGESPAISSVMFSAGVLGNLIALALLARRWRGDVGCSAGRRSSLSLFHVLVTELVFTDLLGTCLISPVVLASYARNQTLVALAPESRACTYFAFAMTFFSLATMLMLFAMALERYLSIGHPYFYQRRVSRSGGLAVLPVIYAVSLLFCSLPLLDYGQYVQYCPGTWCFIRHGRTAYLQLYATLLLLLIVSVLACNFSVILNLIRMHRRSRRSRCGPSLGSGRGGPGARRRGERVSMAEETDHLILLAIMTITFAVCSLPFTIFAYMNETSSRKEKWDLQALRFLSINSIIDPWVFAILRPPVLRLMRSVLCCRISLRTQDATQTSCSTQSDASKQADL
T2 sequence (P35408 whole entry): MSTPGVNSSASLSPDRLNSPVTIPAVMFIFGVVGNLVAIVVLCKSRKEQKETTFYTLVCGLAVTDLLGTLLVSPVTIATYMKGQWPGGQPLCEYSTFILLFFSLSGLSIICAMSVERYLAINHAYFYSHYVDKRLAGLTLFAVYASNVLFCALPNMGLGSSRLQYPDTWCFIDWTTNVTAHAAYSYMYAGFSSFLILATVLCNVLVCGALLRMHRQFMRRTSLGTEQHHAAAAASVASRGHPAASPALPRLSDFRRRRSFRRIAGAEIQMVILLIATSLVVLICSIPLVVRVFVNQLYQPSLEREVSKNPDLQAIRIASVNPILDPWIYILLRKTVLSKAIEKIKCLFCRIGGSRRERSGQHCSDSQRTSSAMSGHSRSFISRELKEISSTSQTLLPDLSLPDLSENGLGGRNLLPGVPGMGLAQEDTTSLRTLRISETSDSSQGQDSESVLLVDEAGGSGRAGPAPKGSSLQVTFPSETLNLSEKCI

| EC50 [1] [µM] | EC50 [2] [µM] | EC50 [3] [µM] | Ki [4] [µM] | Ki [5] [µM] | Structure (SMILES) |
| --- | --- | --- | --- | --- | --- |
| 0.111 | 0.024 | 1.17 | 5.06 | 0.603 | O=C(O)CCC/C=C\C[C@@H]1[C@@H](COc2cccc(O)c2)[C@H](O)C[C@H]1Cl [Example 30, (Z)-7-[(1R,2S,3R,5R)-5-Chloro-3-hydroxy-2-(3-hydroxy-phenoxymethyl)-cyclopentyl]-hept-5-enoic acid] |
| 5.58 | 3.35 | > 10 | > 10 | 4.32 | Cc1cccc(C)c1OC[C@@H]1[C@@H](C/C=C\CCCC(=O)O)[C@H](Cl)C[C@H]1O [Example 35, (Z)-7-[(1R,2S,3R,5R)-5-Chloro-2-(2,6-dimethyl-phenoxymethyl)-3-hydroxy-cyclopentyl]-hept-5-enoic acid] |
| 0.082 | 0.028 | 2.74 | 0.351 | 0.163 | O=C(O)CCCCCC[C@@H]1[C@@H](COc2cccc3ccccc23)[C@H](O)C[C@H]1Cl [Example 20, (Z)-7-[(1R,2S,3R,5R)-5-Chloro-3-hydroxy-2-(naphthalen-1-yloxymethyl)-cyclopentyl]-heptanoic acid] |
| 0.017 | 0.001 | 6.97 | 1.44 | 0.086 | O=C(O)CCC/C=C\C[C@@H]1[C@@H](COc2cccc3c2CCCC3O)[C@H](O)C[C@H]1Cl (stereo partly drawn) [Example 60, (Z)-7-[(1R,2S,3R,5R)-5-Chloro-3-hydroxy-2-(5-hydroxy-5,6,7,8-tetrahydro-naphthalen-1-yloxymethyl)-cyclopentyl]-hept-5-enoic acid] |
| 0.0023 | 0.0015 | > 10 | 0.606 | 0.025 | Cc1cc(OC[C@@H]2[C@@H](C/C=C\CCCC(=O)O)[C@H](Cl)C[C@H]2O)cc(C)c1C [Example 38, (Z)-7-[(1R,2S,3R,5R)-5-Chloro-3-hydroxy-2-(3,4,5-trimethyl-phenoxymethyl)-cyclopentyl]-hept-5-enoic acid] |
| 1.97 | 0.018 | > 10 | – | 0.161 | O=C(O)CCC/C=C\C[C@@H]1[C@@H](COc2cccc(CCO)c2)[C@H](O)C[C@H]1Cl [Example 62, (Z)-7-{(1R,2S,3R,5R)-5-Chloro-3-hydroxy-2-[3-(2-hydroxy-ethyl)-phenoxymethyl]-cyclopentyl}-hept-5-enoic acid] |
| 5.98 | 0.128 | > 10 | – | 3.91 | O=C(O)CCC/C=C\C[C@@H]1[C@@H](COc2ccccc2CCO)[C@H](O)C[C@H]1Cl [Example 61, (Z)-7-{(1R,2S,3R,5R)-5-Chloro-3-hydroxy-2-[2-(2-hydroxy-ethyl)-phenoxymethyl]-cyclopentyl}-hept-5-enoic acid] |
| 0.045 | 0.01 | 2.86 | 3.22 | 0.032 | O=C(O)CCC/C=C\C[C@@H]1[C@@H](COc2ccc(Cl)cc2)[C@H](O)C[C@H]1Cl [Example 23, (Z)-7-[(1R,2S,3R,5R)-5-Chloro-2-(4-chloro-phenoxymethyl)-3-hydroxy-cyclopentyl]-hept-5-enoic acid] |
| > 10 | – | > 10 | – | 1.99 | O=C(O)CCC/C=C\C[C@@H]1[C@@H](COc2ccc(CCO)cc2)[C@H](O)C[C@H]1Cl [Example 63, (Z)-7-{(1R,2S,3R,5R)-5-Chloro-3-hydroxy-2-[4-(2-hydroxy-ethyl)-phenoxymethyl]-cyclopentyl}-hept-5-enoic acid] |
| 0.026 | 0.037 | 0.449 | 5.01 | 0.303 | O=C(O)CCC/C=C\C[C@@H]1[C@@H](COc2ccccc2Cl)[C@H](O)C[C@H]1Cl [Example 21, (Z)-7-[(1R,2S,3R,5R)-5-Chloro-2-(2-chloro-phenoxymethyl)-3-hydroxy-cyclopentyl]-hept-5-enoic acid] |
| 1.58 | 0.139 | 7.68 | 2.38 | 0.568 | O=C(O)CCC/C=C\C[C@@H]1[C@@H](COc2cccc(OC(=O)c3ccccc3)c2)[C@H](O)C[C@H]1Cl [Example 29, 3-[(1S,2R,3R,5R)-2-((Z)-6-carboxy-hex-2-enyl)-3-chloro-5-hydroxy-cyclopentylmethoxy]-phenyl benzoate] |
| 0.618 | 0.027 | > 10 | 1.1 | 0.05 | Cc1ccc(OC[C@@H]2[C@@H](C/C=C\CCCC(=O)O)[C@H](Cl)C[C@H]2O)cc1C [Example 37, (Z)-7-[(1R,2S,3R,5R)-5-Chloro-2-(3,4-dimethyl-phenoxymethyl)-3-hydroxy-cyclopentyl]-hept-5-enoic acid] |
| 0.013 | 0.0013 | > 10 | 1.71 | 0.016 | O=C(O)CCC/C=C\C[C@@H]1[C@@H](COc2cc(C(F)(F)F)cc(Cl)c2F)[C@H](O)C[C@H]1Cl [Example 41, (Z)-7-[(1R,2S,3R,5R)-5-Chloro-2-(3-chloro-2-fluoro-5-trifluoromethyl-phenoxymethyl)-3-hydroxy-cyclopentyl]-hept-5-enoic acid] |
| 0.277 | 0.072 | 7.25 | – | 0.62 | Cc1ccc(OC[C@@H]2[C@@H](C/C=C\CCCC(=O)O)[C@H](Cl)C[C@H]2O)c(C)c1 [Example 33, (Z)-7-[(1R,2S,3R,5R)-5-Chloro-2-(2,4-dimethyl-phenoxymethyl)-3-hydroxy-cyclopentyl]-hept-5-enoic acid] |
